The values that follow come from PubChem BioAssay (NCI).

Some test systems named below: SW-620 colon; HL-60(TB) leukemia; CCRF-CEM leukemia; A498 renal; HT29 colon; SR leukemia; SK-MEL-28 melanoma; HS 578T breast; BT-549 breast; MDA-MB-231 breast.
Assay in all cases: NCI-60 cell line screen, 48 h

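These data come from cells grown in 96-well plates and exposed to compound for 48 hours at five concentrations. GI50 = concentration required for 50% inhibition of growth. TGI is the concentration that stops growth completely.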

Take `CC(C)CCCC(C)[C@H]1CCC2[C@@H]3CCC4Nc5nocc5C[C@]4(C)C3CC[C@@]21C` (stereo partly specified): the TGI with SW-620 colon stood at 31.4 µM; in the assay on HL-60(TB) leukemia it was 27.6 µM; with CCRF-CEM leukemia, 36.9 µM; in the assay on A498 renal, 36.1 µM; in the assay on HT29 colon it was 37.1 µM.

Take `COCC(O)Cn1ccnc1[N+](=O)[O-]` (stereo unspecified): the TGI with SW-620 colon, with HL-60(TB) leukemia, with CCRF-CEM leukemia, in the assay on SR leukemia, in the assay on HT29 colon and with SK-MEL-28 melanoma was greater than 100 µM throughout.

As to `Cc1cc2c(C)nn(Cc3ccccc3)c2c(C(N)=O)c1C`, the TGI in the assay on SW-620 colon, in the assay on CCRF-CEM leukemia, in the assay with A498 renal, with HT29 colon and in the assay with SK-MEL-28 melanoma was greater than 100 µM in each case.

As to `COc1ccc(-c2nc(/C=N/Nc3cc(C)nc4ccc(Cl)cc34)c(C)o2)cc1`, the GI50 was 1.6 µM in the assay with SW-620 colon; 1.84 µM with HS 578T breast; 1.95 µM with BT-549 breast; 3.13 µM in the assay on A498 renal; 1.8 µM in the assay on SK-MEL-28 melanoma; 2.03 µM in the assay on MDA-MB-231 breast. Moreover, the TGI in the assay on SW-620 colon turned out to be 3.2 µM; in the assay on HS 578T breast it was 3.79 µM; with BT-549 breast, 4.28 µM; with A498 renal, 15.2 µM; in the assay on SK-MEL-28 melanoma, 3.24 µM; in the assay on MDA-MB-231 breast, 3.84 µM.

As for `COC1OC(CBr)C(OC(=O)c2ccccc2)C(O)C1Br` (stereo unspecified), the TGI in the assay on SW-620 colon, with HL-60(TB) leukemia, in the assay on CCRF-CEM leukemia, in the assay with SR leukemia, with A498 renal and in the assay on HT29 colon was greater than 100 µM in each case. The compound also registered a TGI in the assay with SK-MEL-28 melanoma greater than 100 µM.

For the compound `O=C1Nc2nc3ccccc3n2N=C2CCCC12` (stereo unspecified), the TGI in the assay with SW-620 colon, in the assay with CCRF-CEM leukemia, in the assay on A498 renal, with HT29 colon and in the assay on SK-MEL-28 melanoma was greater than 100 µM throughout.

Turning to `C[C@]12CCC(=O)C=C1CC[C@@H]1C2CC[C@]2(C)Nc3c(cnn3-c3ccccc3)CC12` (stereo partly specified), the TGI in the assay with SW-620 colon, in the assay on HL-60(TB) leukemia, in the assay with CCRF-CEM leukemia, with A498 renal, with HT29 colon and in the assay on SK-MEL-28 melanoma was greater than 100 µM each time.

On to `N.N.N.N.N.[Cl-].[Co+3].c1ccc(-c2nn[n-]n2)cc1`, for which the GI50 with SW-620 colon, with HL-60(TB) leukemia, in the assay on CCRF-CEM leukemia, with SR leukemia, in the assay on HT29 colon and in the assay on SK-MEL-28 melanoma was greater than 100 µM throughout. Moreover, the TGI with SW-620 colon, with HL-60(TB) leukemia, in the assay with CCRF-CEM leukemia, in the assay with SR leukemia, in the assay on HT29 colon and with SK-MEL-28 melanoma was greater than 100 µM throughout.

As for `O=c1[nH]nc2ccccc2c1Cc1ccccc1`, the TGI with SW-620 colon, in the assay with CCRF-CEM leukemia, in the assay on A498 renal, in the assay with HT29 colon and in the assay with SK-MEL-28 melanoma was greater than 100 µM throughout.

On to `O=c1oc(Cl)c(Cl)c2ccccc12`, for which the GI50 was 19.7 µM with SW-620 colon; 35.1 µM in the assay with HS 578T breast; 20.8 µM with BT-549 breast; 34.9 µM in the assay with HT29 colon; 46.5 µM in the assay on SK-MEL-28 melanoma; 24.8 µM with MDA-MB-231 breast. Also, the TGI in the assay on SW-620 colon was 56.3 µM; in the assay on HS 578T breast it was 96.2 µM; with BT-549 breast, 41.2 µM; in the assay with HT29 colon it was greater than 100 µM; in the assay with SK-MEL-28 melanoma, greater than 100 µM; with MDA-MB-231 breast, 68.4 µM.

Consider `C1COCCN1.C1COCCN1.NC1CCCCC1N.[Cl-].[Pt+2]` (stereo unspecified), for which the GI50 with SW-620 colon, with HL-60(TB) leukemia, in the assay on CCRF-CEM leukemia, with A498 renal, in the assay on HT29 colon and in the assay on SK-MEL-28 melanoma was greater than 100 µM each time. The TGI in the assay on SW-620 colon, in the assay on HL-60(TB) leukemia, with CCRF-CEM leukemia, in the assay on A498 renal, in the assay with HT29 colon and in the assay on SK-MEL-28 melanoma was greater than 100 µM in each case.

As for `CCN(CC)CCOc1ccc(CCc2cc(OC)c(OC)c(OC)c2)cc1`, the TGI in the assay with SW-620 colon was 46.8 µM; in the assay with HL-60(TB) leukemia, 44.4 µM; in the assay on CCRF-CEM leukemia, greater than 100 µM; in the assay on SR leukemia, greater than 100 µM; in the assay with A498 renal, 98.7 µM; in the assay on HT29 colon, 39 µM. Besides, the TGI in the assay with SK-MEL-28 melanoma is greater than 100 µM.

With `Cc1ccc(SSc2ccc(C)cc2C(=O)O)c(C(=O)O)c1`, the TGI in the assay on SW-620 colon, with HL-60(TB) leukemia, in the assay with CCRF-CEM leukemia, in the assay with SR leukemia, with A498 renal and in the assay on HT29 colon was greater than 100 µM each time. The compound further displayed a TGI with SK-MEL-28 melanoma greater than 100 µM.

Consider `O=C1NC2(CCCCCC2)C2CCCCCCC12O` (stereo unspecified), for which the TGI in the assay with SW-620 colon, with HL-60(TB) leukemia, in the assay with CCRF-CEM leukemia, in the assay on SR leukemia, in the assay with A498 renal and in the assay with HT29 colon was greater than 100 µM throughout. The TGI in the assay on SK-MEL-28 melanoma is greater than 100 µM.

Take `Cc1oc2c(C)c3oc(=O)cc(C)c3cc2c1CN1C(=O)C2OCCOCCOCCOCCOCCO[C@H]2C1=O` (stereo partly specified): the TGI in the assay on SW-620 colon, with HL-60(TB) leukemia, in the assay on CCRF-CEM leukemia, in the assay with SR leukemia, in the assay with A498 renal and in the assay with HT29 colon was greater than 100 µM throughout.

`C1=CC=C2NCCCCCCCNC3=CC=CC=CC3=NCCCCCCCN=C2C=C1`: the TGI in the assay on SW-620 colon, with HL-60(TB) leukemia, in the assay with CCRF-CEM leukemia, with SR leukemia and in the assay on HT29 colon was greater than 100 µM in each case.

Take `CN1CCN(CCOc2ccc(-c3cnc4c(-c5ccc(C(F)(F)F)cc5)cnn4c3)cc2)CC1`: the GI50 is 1.76 µM in the assay on SW-620 colon; 1.62 µM with HS 578T breast; 1.62 µM with BT-549 breast; 1.37 µM in the assay on A498 renal; 0.993 µM in the assay with HT29 colon; 1.68 µM in the assay on SK-MEL-28 melanoma. Also, in the assay on MDA-MB-231 breast, the GI50 was 1.5 µM. The TGI worked out at 3.27 µM in the assay with SW-620 colon; 3.41 µM in the assay on HS 578T breast; 3.04 µM with BT-549 breast; 2.76 µM in the assay with A498 renal; 2.38 µM with HT29 colon; 3.11 µM in the assay on SK-MEL-28 melanoma. This compound gave a TGI in the assay on MDA-MB-231 breast of 2.95 µM.

For `O=C1C2C3C=C4c5ccccc5N(c5ccccc5)C4(C2C(=O)N1c1ccc(Cl)cc1)[C@H]1C(=O)N(c2ccc(Cl)cc2)C(=O)[C@@H]31` (stereo partly specified), the TGI in the assay with SW-620 colon, in the assay on HL-60(TB) leukemia, with CCRF-CEM leukemia, with SR leukemia, in the assay with A498 renal and with HT29 colon was greater than 100 µM each time.

For `Cc1cc(C(=C2C=CC(=Nc3ccccc3)C=C2)c2ccc(Nc3ccccc3)cc2)ccc1N`, the GI50 in the assay with SW-620 colon was 0.29 µM; with CCRF-CEM leukemia, 0.352 µM; in the assay with BT-549 breast, 1.06 µM; in the assay on A498 renal, 0.543 µM; with HT29 colon it was 0.164 µM; in the assay on SK-MEL-28 melanoma it was 0.368 µM. Besides, the GI50 in the assay on MDA-MB-231 breast was 0.363 µM. For the same compound, the TGI in the assay on SW-620 colon was 1.05 µM; in the assay on CCRF-CEM leukemia it was greater than 100 µM; with BT-549 breast, 2.26 µM; in the assay with A498 renal, 1.86 µM; in the assay on HT29 colon it was 0.302 µM; with SK-MEL-28 melanoma, 1.4 µM. Besides, in the assay with MDA-MB-231 breast, the TGI was 1.34 µM.

In the case of `O=C(CC(=O)C1=CNc2ccccc2S1)C(=O)Nc1ccc(Cl)cc1`, the TGI in the assay on SW-620 colon is greater than 50 µM; in the assay with HL-60(TB) leukemia, 49.6 µM; in the assay on CCRF-CEM leukemia, greater than 50 µM; in the assay on A498 renal, greater than 50 µM; with HT29 colon it was greater than 50 µM; in the assay with SK-MEL-28 melanoma, greater than 50 µM.

Regarding `COc1ccc2c(c1)[n+]([O-])c(-c1ccc(OC)c(OC)c1)c(N)[n+]2[O-]`, the TGI with SW-620 colon was greater than 100 µM; with HL-60(TB) leukemia it was greater than 100 µM; in the assay on CCRF-CEM leukemia, greater than 100 µM; with A498 renal it was greater than 100 µM; with HT29 colon it was greater than 100 µM; in the assay on SK-MEL-28 melanoma it was 69.4 µM.

Take `Cc1cc(NCCCCCCNc2cc(C)nc3cc(N(C)C)ccc23)c2ccc(N(C)C)cc2n1`: the TGI is greater than 100 µM with SW-620 colon; 8.52 µM in the assay with HL-60(TB) leukemia; greater than 100 µM with CCRF-CEM leukemia; greater than 100 µM with SR leukemia; greater than 100 µM with A498 renal; greater than 100 µM in the assay on HT29 colon. The compound further registered a TGI in the assay with SK-MEL-28 melanoma greater than 100 µM.

In the case of `OCC1C(/C=C/c2ccoc2)ON2CCCC12` (stereo unspecified), the TGI in the assay with SW-620 colon, in the assay with HL-60(TB) leukemia, with HT29 colon and with SK-MEL-28 melanoma was greater than 100 µM in each case.
